Assay results published in PMC9695012, “Diastereoselective Synthesis of Novel Spiro-Phosphacoumarins and Evaluation of Their Anti-Cancer Activity” (International Journal of Molecular Sciences, 2022).

Legend:
[1] = Solubility in water; format: physicochemical; settings: in words; reason for exclusion from cytotoxicity studies
[2] = test system: Chang Liver; settings: relative to 5-fluorouracil
[3] = test system: HuTu 80 cells; test: Apoptosis induction, annexin V-Alexa Fluor 647 / propidium iodide flow cytometry; format: cell-based, human; settings: 24-h incubation, most active at IC50/2 (12.5 µM), early apoptosis stage
Protocol: Cell Culture. HuTu 80 cells at 1 × 10^6 cells/well in a final volume of 2 mL were seeded into six-well plates. After 24 h of incubation, various concentrations of compound 2a were added to wells.
Cell Apoptosis Analysis. The cells were harvested at 2000 rpm for 5 min and then washed twice with ice-cold PBS, followed by resuspension in binding buffer. Next, the samples were incubated with 5 μL of annexin V- Alexa Fluor 647 (Sigma-Aldrich, St. Louis, MO, USA) and 5 μL of propidium iodide for 15 min at room temperature in the dark. Finally, the cells were analyzed by flow cytometry (Guava easy Cyte, MERCK, Rahway, NJ, USA) within 1 h. The experiments were repeated three times.

[4] = test system: M-HeLa; test: cells; format: cell-based, human; settings: for IC50: Homo sapiens, M-HeLa, MTT, cancer cell line, three independent experiments; for SI, M-HeLa: selectivity index vs Chang liver normal cells, ns = no selectivity
[5] = test system: HuTu 80 cells; test: Cell cycle analysis by flow cytometry; format: cell-based, human; settings: 24 h; for cells in G1/G0 phase: control 77%
Protocol: Taking into account the high potency and selectivity of the compound 2a, some additional experiments were carried out to study in more details its anti-cancer action. The mechanism of action of cytotoxic agents is often associated with cell cycle arrest, which leads to a slowing down of cell proliferation. So, we have performed a cell cycle analysis for the HuTu 80 cells using flow cytometry. […] Meanwhile, the proportion of cells in S phase decreased almost by half (8.2% vs. 4.7%).

[6] = test system: HuTu 80; settings: for SI, HuTu 80: selectivity index vs Chang liver normal cells, ns = no selectivity
[7] = test system: MCF-7; test: cells; format: cell-based, human; settings: for IC50: Homo sapiens, MCF7, MTT, cancer cell line, three independent experiments; for SI, MCF-7: selectivity index vs Chang liver normal cells, ns = no selectivity
[8] = test system: HuTu 80; test: cells; settings: Homo sapiens, HuTu80, read-out: IC50, HuTu 80
[9] = test system: HuTu 80 cells; test: Mitochondrial membrane potential, JC-10 flow cytometry; format: cell-based, human; settings: IC50/2 and IC50, more pronounced at IC50/2
Protocol: The possibility of apoptosis through the mitochondrial pathway was assessed by flow cytometry using the JC-10 fluorescent dye (in the Mitochondria Membrane Potential Kit). In normal cells with a high membrane potential, JC-10 accumulates in the mitochondrial matrix, where it forms aggregates with a red fluorescence. However, in apoptotic cells, a decrease in the membrane potential occurs. JC-10 diffuses from mitochondria and turns into a monomeric form, emitting a green fluorescence, which is recorded by a flow cytometer (Figure 4). […] As in the experiment with V-Alexa Fluor 647, the cytotoxic effect of compound 2a was more pronounced at IC50/2 concentration.
Cells were harvested at 2000 rpm for 5 min and then washed twice with ice-cold PBS, followed by resuspension in JC-10 (10 µg/mL) and incubation at 37 °C for 10 min. After the cells were rinsed three times and suspended in PBS, the JC-10 fluorescence was observed by flow cytometry (Guava easy Cyte, MERCK, Rahway, NJ, USA).

[10] = test system: HuTu 80 cells; test: Intracellular ROS, CellROX Deep Red flow cytometry; format: cell-based, human; settings: for CellROX Deep Red fluorescence intensity (ROS production): control 700
Source text: An increase in the production of reactive oxygen species (ROS) by compounds also characterizes the development of apoptosis along the mitochondrial pathway. Mitochondria are a potential source and target of ROS. ROS leads to dysfunction of the mitochondria and, consequently, to irreversible cell damage. In this regard, the effect of the lead compound 2a in HuTu 80 cells on ROS production was investigated using a flow cytometry assay and the CellROX® Deep Red flow cytometry kit. The data presented in Figure 6 show a significant increase in CellROX® Deep Red fluorescence intensity dominated by IC50/2.
HuTu 80 cells were incubated with compound 2a at concentrations of IC50 for 24 h. ROS generation was investigated using flow cytometry assay and CellROX® Deep Red flow cytometry kit. For this HuTu 80 cells were harvested at 2000 rpm for 5 min and then washed twice with ice-cold PBS, followed by resuspension in 0.1 mL of medium without FBS, to which was added 0.2 μL of CellROX® Deep Red and incubated at 37 °C for 30 min After being washed three times, the cells were suspended in PBS, and the production of ROS in the cells was immediately monitored using a flow cytometer Guava easy Cyte, MERCK, Rahway, NJ, USA).

[11] = test system: Chang Liver; test: cells; settings: Homo sapiens, read-out: IC50, Chang Liver

| Structure (SMILES) | melting point | IC50 [4] | SI, M-HeLa [4] | SI, HuTu 80 [6] | IC50 [7] | IC50 [8] | IC50 [11] | SI, MCF-7 [7] | further results |
| --- | --- | --- | --- | --- | --- | --- | --- | --- | --- |
| O=C1c2ccccc2C(=O)C12[C@@H]1c3ccc4ccccc4c3OP(=O)(O)[C@@H]1[C@H]1CCCN12 [2f, (8a’S,8b’R,13a’S)-8’-hydroxy-8a’,8b’,9’,10’,11’,13a’-hexahydrospiro[indene-2,13’-naphtho [2’,1’:5,6][1,2]oxaphosphinino [3,4-a]pyrrolizine]-1,3-dione 8’-oxide] | > 300 °C |  |  |  |  |  |  |  | solubility in water [1]: extremely low |
| O=C1c2ccccc2C(=O)C12[C@@H]1c3ccc4cc(Br)ccc4c3OP(=O)(O)[C@@H]1[C@H]1CCCN12 [2g, (8a’S,8b’R,13a’S)-4’-bromo-8’-hydroxy-8a’,8b’,9’,10’,11’,13a’-hexahydrospiro[indene-2,13’-naphtho [2’,1’:5,6][1,2]oxaphosphinino [3,4-a]pyrrolizine]-1,3-dione 8’-oxide] | > 300 °C |  |  |  |  |  |  |  | solubility in water [1]: extremely low |
| Cc1cc(C)c2c(c1C)OP(=O)(O)[C@@H]1CN(C)C3(C(=O)c4ccccc4C3=O)[C@H]21 [2a, (3aS,9bS)-4-hydroxy-2,6,7,9-tetramethyl-2,3,3a,9b-tetrahydrospiro[benzo [5,6][1,2]oxaphosphinino [3,4-c]pyrrole-1,2’-indene]-1’,3’-dione 4-oxide] | > 300 °C | 52.6 ± 4.1 µM | >15 | >32 | 82.3 ± 7.5 µM | 25.1 ± 1.9 µM | > 800 µM |  | cytotoxicity against Chang liver normal cell line, fold lower than reference compound [2]: more than 10 fold; induction of apoptosis (in words) [3]: begins to induce apoptosis; effect on cell cycle (in words) ([5]; 12.5 and 25 µM): induces G0/G1 phase arrest; cells in S phase ([5]; IC50 (25 µM), control 8.2%): 4.7%; cells in G1/G0 phase ([5]; IC50 (25 µM)): 81.0%; cells in G1/G0 phase ([5]; IC50/2 (12.5 µM)): 79.0%; cytotoxicity against HuTu 80 cell line, fold higher than reference 5-fluorouracil ([6]; relative to 5-fluorouracil): ~2.6 fold; effect on mitochondrial membrane potential (in words) [9]: significant decrease; CellROX Deep Red fluorescence intensity (ROS production) ([10]; IC50 (25 µM)): 1500; CellROX Deep Red fluorescence intensity (ROS production) ([10]; IC50/2 (12.5 µM)): 2000; effect on ROS production (in words) ([10]; IC50/2 and IC50, dominated by IC50/2): increase in ROS production |
| O=c1[nH]cc(F)c(=O)[nH]1 [5-fluorouracil, reference compound] |  | 62 ± 4.7 µM | 1.4 | 1.3 | 16.7 ± 1.3 µM | 65.2 ± 5.6 µM |  | 5 |  |
| CN1C[C@@H]2[C@@H](c3c(O)c(Cl)cc(Cl)c3OP2(=O)O)C12C(=O)c1ccccc1C2=O [2c, (3aS,9bS)-6,8-dichloro-4,9-dihydroxy-2-methyl-2,3,3a,9b-tetrahydrospiro[benzo [5,6][1,2]oxaphosphinino [3,4-c]pyrrole-1,2’-indene]-1’,3’-dione 4-oxide] | > 300 °C | > 100 µM | ns | ns | 77.6 ± 6.2 µM | 100 ± 8.4 µM | > 100 µM | ns |  |
| CN1C[C@@H]2[C@@H](c3ccc4ccccc4c3OP2(=O)O)C12C(=O)c1ccccc1C2=O [2d, (3a’S,11a’S)-11’-hydroxy-2’-methyl-1’,2’,3a’,11a’-tetrahydrospiro[indene-2,3’-naphtho [2’,1’:5,6][1,2]oxaphosphinino [3,4-c]pyrrole]-1,3-dione 11’-oxide] | > 300 °C | 60 ± 5.4 µM | ns | ns | 92.2 ± 8.3 µM | 82.6 ± 7.6 µM | 57 ± 4.3 µM | ns |  |
| COc1ccc2c(c1)OP(=O)(O)[C@@H]1CN(C)C3(C(=O)c4ccccc4C3=O)[C@H]21 [2b, (3aS,9bS)-4-hydroxy-7-methoxy-2-methyl-2,3,3a,9b-tetrahydrospiro[benzo [5,6][1,2]oxaphosphinino [3,4-c]pyrrole-1,2’-indene]-1’,3’-dione 4-oxide] |  | 59.7 ± 4.6 µM | 1 | 1.2 | > 100 µM | 53.4 ± 4.2 µM | 62 ± 5.5 µM | ns |  |
| CN1c2c(c(=O)oc3ccccc23)CC12C(=O)c1ccccc1C2=O | > 300 °C |  |  |  |  |  |  |  |  |
| Cc1cc(C)c2c(c1C)OP(=O)(O)[C@@H]1[C@H]3CCCN3C3(C(=O)c4ccccc4C3=O)[C@H]21 [2e, (6aS,6bR,11aS)-6-hydroxy-1,3,4-trimethyl-6a,6b,7,8,9,11a-hexahydrospiro[benzo [5,6][1,2]oxaphosphinino [3,4-a]pyrrolizine-11,2’-indene]-1’,3’-dione 6-oxide] | > 300 °C | > 100 µM | ns | ns | > 100 µM | > 100 µM | > 100 µM | ns |  |
